The record followed here is US8790898B2 (priority 2008, dated 2014).

One experiment relates to HIV-1 BZ 167. The class given is cell-based.
The subject of experiment [1] is CBD1 peptide and CBD1- and CBM-based peptides. Further details: species or system BALB/c mice. The settings on record: mouse, in vivo; for ELISA titer against C17K / IgG2/IgG1 ratio / ELISA against the Immunogen (OD) / ELISA C17K / ELISA K23M / ELISA K24W / ELISA K27M / ELISA K27W / ELISA K27W(G) / ELISA K30W(G) / ELISA p6362: sc. A general note: ELISA stands for enzyme-linked immunosorbent assay.
For ELISA C17K in this document: test concentration or dose not given here.
For ELISA K24W in this document: test concentration or dose not given here.
For ELISA K27W in this document: test concentration or dose not given here.
For ELISA K27W(G) in this document: test concentration or dose not given here.
For ELISA K30W(G) in this document: test concentration or dose not given here.
For ELISA against the Immunogen (OD) in this document: test concentration or dose not given here.
For ELISA p6362 in this document: test concentration or dose not given here.

Regarding “AQYIKANSKFIGITELKKCSLEQIWNNMTWMQWDK (AQYIKANSKFIGITELKKCSLEQIWNNMTWMQWDK) [A35K]”, in the experiment with HIV-1 BZ 167, the “% inhibition of HIV-1 at 200-fold dilution” value is reported as 42%, the “Neutralizing activity ID50” value is on record as 150-fold and the “difference in the degree of neutralization of HIV-1 infection versus anti-CBD1 immune sera” value is listed as “less than 2 fold”. Also, in experiment [1], the “production of anti-CBD1 peptide antibodies, fold lower compared to the CBD1 peptide alone” value is reported as “at least 3 fold”; the “ELISA titer against C17K” value stood at 0.61 ± 0.35; the IgG2/IgG1 ratio turned out to be 1.56.
As to “AQYIKANSKFIGITELKKIWNNMTWMQWDK (AQYIKANSKFIGITELKKIWNNMTWMQWDK) [A30K]”, in the experiment on HIV-1 BZ 167, the “% inhibition of HIV-1 at 200-fold dilution” value was determined as 45% and the “Neutralizing activity ID50” value was 150-fold. In experiment [1], the “ELISA titer against C17K” value came to 0.83 ± 0.44 and the IgG2/IgG1 ratio is given as 3.24.
As to C-S-L-E-Q-I-W-N-N-M (CSLEQIWNNM) [C10M], in the experiment on HIV-1 BZ 167, the “% Inhibition of HIV-1 infection at 200-fold dilution” value is given as “No Effect” and the “Neutralizing activity ID50 Fold-Dilution” value was “No Effect”. Also, the “ELISA against the Immunogen (OD)” value in experiment [1] is on record as under 0.10 OD.
CKSLEQIWNNMTWMQWDK [C18K]: in the experiment on HIV-1 BZ 167, the “% inhibition of HIV-1 at 200-fold dilution” value came out at 65% and the “Neutralizing activity ID50” value is on record as 250-fold. The “ELISA titer against C17K” value in experiment [1] is 1.75 ± 0.60.
For the substance “KQIINMWQVVGKAMYAKKCKSLEQIWNNMTWMQWDK (KQIINMWQVVGKAMYAKKCKSLEQIWNNMTWMQWDK)”, in the experiment with HIV-1 BZ 167, the “% inhibition of HIV-1 at 200-fold dilution” value is 45% and the “Neutralizing activity ID50” value was 150-fold. In addition, in experiment [1], the “ELISA titer against C17K” value amounted to 1.07 ± 0.33.
Consider “KRWIILGLNKIVRMYGPGPGIWNNMTW [K27W(G)]”, for which, in the experiment with HIV-1 BZ 167, the “% Inhibition of HIV-1 infection at 200-fold dilution” value is 16% and the “Neutralizing activity ID50 Fold-Dilution” value is recorded as 100-fold. In experiment [1], the “ELISA C17K” value is under 0.20, the “ELISA K23M” value is recorded as under 0.20, the “ELISA K24W” value was under 0.20 and the “ELISA K27M” value is recorded as under 0.20. In experiment [1], the “ELISA K27W” value is listed as under 0.20, the “ELISA K27W(G)” value turned out to be 0.66 ± 0.22, the “ELISA K30W(G)” value is listed as under 0.20 and the “ELISA against the Immunogen (OD)” value turned out to be 0.73 OD. In experiment [1], the “ELISA p6362” value is reported as under 0.20.
In the case of “KRWIILGLNKIVRMYGPGPGIWNNMTWMQW [K30W(G)]”, in the experiment with HIV-1 BZ 167, the “% Inhibition of HIV-1 infection at 200-fold dilution” value was 81% and the “Neutralizing activity ID50 Fold-Dilution” value is 450-fold. In experiment [1], the “ELISA C17K” value is reported as under 0.20, the “ELISA K23M” value is recorded as under 0.20, the “ELISA K24W” value is recorded as under 0.20 and the “ELISA K27M” value was under 0.20. Also, in experiment [1], the “ELISA K27W” value is under 0.20, the “ELISA K27W(G)” value is under 0.20, the “ELISA K30W(G)” value is 1.23 ± 0.55 and the “ELISA against the Immunogen (OD)” value was 1.45 OD. In addition, the “ELISA p6362” value in experiment [1] was under 0.20.
“KRWIILGLNKIVRMYKKCKSLEQIWNNMTWMQWDK”: in the experiment on HIV-1 BZ 167, the “% inhibition of HIV-1 at 200-fold dilution” value came out at 51% and the “Neutralizing activity ID50” value was 200-fold. The “ELISA titer against C17K” value in experiment [1] was determined as 1.72 ± 0.46.
In the case of “KRWIILGLNKIVRMYKKCSLEQIWNNM [K27M]”, in the experiment on HIV-1 BZ 167, the “% Inhibition of HIV-1 infection at 200-fold dilution” value is listed as 65% and the “Neutralizing activity ID50 Fold-Dilution” value is given as 250-fold. In experiment [1], the “ELISA against the Immunogen (OD)” value is given as 1.38 OD.
